Data on 3 molecules can be found in ChEMBL document CHEMBL1157335, “Aromatic constituents of Uvaria grandiflora” (J Nat Prod, 2006).

Structures are written as SMILES. Converted amounts (≈) assume the structure as drawn.

This assay has as its system Leishmania donovani. The experiment in a line: Antileishmanial activity against Leishmania donovani promastigotes after 48 hrs by alamar blue assay. It is filed as functional, organism-based. (The colour change of resazurin is a common sign of viable cells or microbes.)

The IC90 is the concentration at which the effect reaches the 90% level. Low values mean an effect from little substance, high ones a need for much substance. Consider `C[C@@H]1[C@H](O)[C@@H](C)/C=C/C=C/C=C/C=C/C=C/C=C/C=C/[C@H](O[C@@H]2O[C@H](C)[C@@H](O)[C@H](N)[C@@H]2O)C[C@@H]2O[C@](O)(C[C@@H](O)C[C@@H](O)[C@H](O)CC[C@@H](O)C[C@@H](O)CC(=O)O[C@H]1C)C[C@H](O)[C@H]2C(=O)O` [AMPHOTERICIN B], for which the IC90 was determined as 0.34 µg/mL (≈ 0.368 µM).
As usually defined, the IC50 is the concentration that inhibits the measured activity by half. `CC(=O)O[C@H]1C(=O)C=COC=C1COC(=O)c1ccccc1` [GRANDIUVARONE A] gave an IC50 of 0.7 µg/mL (≈ 2.32 µM) and an IC90 of 1.5 µg/mL (≈ 4.96 µM).
On to `N=C(N)c1ccc(OCCCCCOc2ccc(C(=N)N)cc2)cc1` [PENTAMIDINE], for which the 90% effect level (IC90) was put at 6.6 µg/mL (≈ 19.4 µM).
